From paper PMC9166630, “SAR Probing of KX2-391 Provided Analogues With Juxtaposed Activity Profile Against Major Oncogenic Kinases” (Frontiers in Oncology, 2022)
Values after ≈ are worked out from the molar mass of the structure shown. Where two headings read alike, the source gives them in different places.

What was measured:
[1] = Maximum kinetic aqueous solubility; assay type: physicochemical; conditions: 2% DMSO/PBS, pH 7.4, read-out: Max. aq. Sol.
Description: Solubility assays were performed using Millipore MultiScreen® HTS-PFC Filter Plates designed for solubility assays (EMD Millipore, Billerica, MA). Assays were run in triplicate. The 96-well plates consist of two chambers separated by a filter. Liquid handling was performed using JANUS® Verispan and MTD workstations (Perkin Elmer, Waltham, MA). 4 µL of 4e or 4n solution (10 mM in DMSO) was added to 196 µL of phosphate buffer (45 mM potassium phosphate, 45 mM sodium acetate, 45 mM ethanolamine, pH = 7.4) in the top chamber to give a final DMSO concentration of 2% and a theoretical drug concentration of 200 µM. Plates were gently shaken for 90 min and then subjected to vacuum. Insoluble drug is captured on the filter. 160 µL of the filtrate is transferred to 96-well Griener UV Star® analysis plates (Sigma–Aldrich, St. Louis, MO) containing 40 µL of acetonitrile. The test compound concentration in the filtrate is measured by UV absorbance on a Spectromax® Plus microplate reader (Molecular Devices, Sunnyvale, CA) using Softmax Pro software v.5.4.5. Absorbances at 5 wavelengths (280, 300, 320, 340, and 360 nm) were summed to generate the UV signal. Standard curves were generated by adding 4 µL of five concentrations of test compound in DMSO to 40 µL of acetonitrile in UV Star plates followed by 156 µL of the appropriate solubility medium. Analysis and statistics were performed using GraphPad® Prism v.5.04. Data were reported as the maximum concentration observed in the filtrate.

HCT116 cell line = assay: MTT anti-proliferative assay, HCT116; assay type: cell-based, human; conditions: Homo sapiens, HCT-116, 72 h, maximum tested concentration 50 µM, read-out: IC50 ± SEM, HCT116
Description: The test compounds were evaluated for anti-proliferative activity using the MTT viability assay against HCT116 cell line. Cells were seeded in triplicate in 96-well plates at a density of 10x 10^3 cells/mL in a total volume of 200 µL per well. 0.1% of DMSO was used as a vehicle control. Each well was treated with 2 µL test compounds, which had been pre-prepared as stock solutions in […] to furnish the concentration range of study, 0.1 µM to 50 µM, and re-incubated for a further 72 h at 37°C in a humidified atmosphere containing 5% CO2. The culture medium was then removed, and the cells were washed with 100 µL PBS and 100 µL MTT was added, to reach a final concentration of 1 mg/mL MTT. Cells were incubated for 3 h in darkness at 37°C. After that, MTT solution was removed and MTT was solubilized by adding […] DMSO. The cells were maintained at room temperature in darkness for 20 min to ensure thorough color diffusion before reading the absorbance using a microplate reader at 570 nm. All experiments were conducted in triplicates. Results were expressed as percentage viability relative to vehicle control (100%). Dose response curves were plotted and IC50 values (concentration of drug resulting in 50% reduction in cell survival) were obtained using the commercial software package Prism (GraphPad Software, Inc., La Jolla, CA, USA).

[2] = system: MCF7 (breast) cancer cells; assay: SRB cytotoxicity assay, MCF7; assay type: cell-based, human; conditions: Homo sapiens, MCF7, 72 h, maximum tested concentration 50 µM, read-out: IC50 ± SEM, MCF7
Description: MCF7 (breast) or N87 (stomach) cancer cells were grown in Roswell Park Memorial Institute-1640 (RPMI-1640) medium (Thermo Fisher Scientific, Inc; Waltham, MA, USA), supplemented with 10% heat inactivated fetal bovine serum (FBS), 50 units/mL of penicillin and […] of streptomycin and maintained at 37°C in a humidified atmosphere containing 5% CO2. The cells were maintained as “monolayer culture” by serial subculturing.
Cytotoxicity was determined using Sulforhodamine B (SRB) method as previously described by Skehan et al. ([66]). Exponentially growing MCF7 and N87 cells were collected using 0.25% Trypsin-EDTA and were then seeded in 96-well plates at a density of 1000-2000 cells/well in 10% FBS and penicillin/streptomycin supplemented RPMI-1640 medium. After 24 h, cells were treated with different concentrations of test compounds and incubated for 72 h at 37°C in a humidified atmosphere containing 5% CO2. Next, the cells were fixed by adding trichloroacetic acid (TCA, 10% final conc. in wells) directly to the wells and incubated for 1 h at 4°C, then cells were washed with distilled water 5 times to remove excess TCA, media, serum proteins, and metabolites, followed by air drying. After that, the fixed cells were stained with 0.4% SRB dissolved in 1% acetic acid for 10 min at room temperature, and excess stain was removed by quickly rinsing with 1% acetic acid. The residual acetic acid was removed completely by air drying the plates for 24 h, and the dye was solubilized with Tris buffer (pH= 7.4, 10 mM) for 5 min on a shaker at 1600 rpm. The optical density (OD) of each well was measured spectrophotometrically at 564 nm with an ELISA microplate reader (ChroMate-4300, FL, USA). The IC50 values (concentration of drug resulting in 50% reduction in cell survival) were calculated according to the equation for Boltzman sigmoidal concentration–response curve using the nonlinear regression fitting models (Graph Pad, Prism Version 5).

[3] = Stability in human liver microsomes; assay type: in vitro ADME; conditions: for half-life: human liver microsomes with NADPH, 37°C, read-out: Stability HLM t1/2; for Mic. Ctrl. Human % 60 min: human liver microsomes, no NADPH added
Description: Both mouse and human liver microsomes were obtained from Merck KGaA, (Darmstadt, Germany), Cat. No. M9441 (Mouse liver microsomes) and M0317 (Human liver microsomes). Assays were conducted in triplicate in 96-deep well polypropylene plates. […] At five time points, reaction mixture aliquots were transferred to 96-shallow well stop plates on ice containing acetonitrile with 0.1 µM propafenone. […] Standard curves for test compound were generated using 5 concentrations in triplicate that were processed as above but with zero incubation time. Stop plates were centrifuged at 2000 g for 10 min and then supernatant aliquots were transferred to a Waters Aquity® UPLC 700 µL 96-well sample plate with cap mat (Waters, Milford, MA). The amount of compound remaining in the supernatant was quantified by LC/MS/MS using a Waters Xevo TQ MS (electrospray positive mode) coupled to a Waters Aquity® UPLC (BEH column, C18). Propafenone was used as the internal standard. GraphPad® Prism v 5.04 was used for nonlinear fitting of time course data to generate t1/2 values.

[4] = phosphate buffer with 2% DMSO, aqueous buffer, kinetic from dmso stock

| SMILES | solubility kinetic at 90 min [1, 4] [µM] | IC50 (HCT116 cell line) [µM] | IC50 [2] [µM] | half-life [3] [min] | Mic. Ctrl. Human % 60 min [3] [%] | solubility kinetic at 90 min [1] [µM] |
| --- | --- | --- | --- | --- | --- | --- |
| O=C(Cc1ccc(NC(=O)c2cccc(Cl)n2)cc1)NCc1ccccc1 [Compound 4n, N-(4-(2-(benzylamino)-2-oxoethyl)phenyl)-6-chloropicolinamide] | 2.6 (≈ 0.988 µg/mL) | 10.8 | 0.25 | 40.1 | 98 |  |
| O=C(Cc1ccc(NC(=O)c2cccc(Cl)c2)cc1)NCc1ccccc1 [Compound 4e, N-(4-(2-(benzylamino)-2-oxoethyl)phenyl)-3-chlorobenzamide] | < 2 | 16.8 ± 2.69 | 7.41 ± 2.8 | > 60 | 102 | < 2.0 |
